Results from article PMC2730762 (Biochemistry, 2009).
Where a SMILES comes first, the peptide text is derived from it. [ ]: non-standard residue; d: D form. The star is where a group is joined. Sta = CC(C)C[C@H](N)[C@@H](O)CC(=O)O; Isovaleryl = CC(C)CC(=O)*

How the values were obtained:
[1] = test system: cultured P. falciparum parasites; details: cited from earlier work
[2] = biological target: naturally-occurring PfPM1; details: cited from earlier work
PfPM1 = PfPM1 (Plasmodium falciparum, UniProt Q7KQM4); assay: biochemical
Chain of PfPM1 (Q7KQM4 124-452): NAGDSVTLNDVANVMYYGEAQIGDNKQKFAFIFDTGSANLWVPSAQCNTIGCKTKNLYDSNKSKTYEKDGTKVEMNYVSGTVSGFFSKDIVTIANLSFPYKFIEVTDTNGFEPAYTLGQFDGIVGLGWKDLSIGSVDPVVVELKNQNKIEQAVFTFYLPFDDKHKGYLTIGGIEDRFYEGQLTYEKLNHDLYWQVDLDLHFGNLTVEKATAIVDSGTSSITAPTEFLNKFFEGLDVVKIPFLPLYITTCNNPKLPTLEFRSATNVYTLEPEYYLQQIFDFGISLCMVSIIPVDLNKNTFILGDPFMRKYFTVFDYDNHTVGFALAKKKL

CC(C)CC(=O)N[C@H](C(=O)N[C@H](C(=O)N[C@@H](CC(C)C)[C@@H](O)CC(=O)N[C@@H](C)C(=O)N[C@@H](CC(C)C)[C@@H](O)CC(=O)O)C(C)C)C(C)C [pepstatin A] (Isovaleryl-VV[Sta]A[Sta]-OH)
killing of cultured P. falciparum parasites [1]: kill cultured P. falciparum parasites
Ki [2]: 0.7 nM
Ki (PfPM1): 1.4 ± 0.2 nM
